Experimental data from patent US20120121509A1, “VITAL FLUOROCHROME CONJUGATES AND METHODS OF USE” (THE GENERAL HOSPITAL CORPORATION, priority 2009, published 2012).

What was measured:
[1] = cited from earlier work; for Abs (absorption): first figure of Abs/em; for em (emission): second figure of Abs/em
plasmid DNA = assay: Relaxation assay: binding of GadoTO to plasmid DNA monitored by relaxometry (T1); details: GadoTO 1 mM, plasmid DNA 0.025 to 0.3 ug/uL, Bruker minispec; 95% confidence interval 0.078-0.101; read-out: half-maximal concentration (EC50) from T1 values
Description: Experimental Details of the Relaxation Assay: Gadolinium thiazole orange (GadoTO) at 1 mM was employed with increasing concentrations of plasmid DNA (DNA 0.025 to 0.3 ug/uL). Relaxation times were measured on a Bruker minispec at […].
(§1) Results from the Relaxation and Fluorescence Assays: The design of vital fluorochrome conjugates must preserve the essential features of the vital fluorochrome upon which it is based. The verification that a putative vital fluorochrome conjugates (VF-Linker-Reporter) has the properties of the VF upon which its was based is shown in FIGS. 2A, 2B, 3 and 4 which show the results with the vital fluorochrome conjugates known as GadoTO. Since the reporter group of GadoTO is a paramagnetic gadolinium chelate, binding can be ascertained by changes in the water relaxation rates. […] Binding of small GadoTO to the larger DNA slows the molecular motion, increasing the R1 relaxivity and decreasing the solution T1.

DNA = assay: Fluorescence assay: binding of GadoTO to DNA monitored by fluorescence; details: GadoTO 2.35 uM, increasing DNA concentrations, emission 510-700 nm; 95% confidence interval 0.149-0.214; read-out: half-maximal concentration (EC50) from fluorescence values
Description: Experimental Details of the Fluorescence Assay: GadoTO at 2.35 uM was employed with increasing concentrations of DNA. Absorption spectra were measured on a Varian Cary 50 Bio UV-Visible spectrophotometer. The absorbance at 511 nm was measured. Fluorescence emission spectra were recorded on a Varian Cary Eclipse fluorescence spectrophometer. Fluorescence intensities were measured between 510 and 700 nm and corrected, when necessary, for matched absorbances at 511 nm. Fluorescence intensities were plotted versus DNA concentrations.
as §1

Jurkat T cells [2] = assay: Dual wavelength FACS with Annexin V-APC, camptothecin-treated Jurkat T cells; format: cell-based
Description: (§2) Experimental Details for the Dual Wavelength FACS and Single Channel FACS: Cell culture: All experiments described used Jurkat T cells (Clone E6-1, ATCC #TIB-152). Cells were grown in RPMI 1640 medium (ThermoFisher Scientific, Hampton, N.H.) with 10% fetal bovine serum (Valley Biomedical, Winchester, Va.), 1% L-Glutamine (Mediatech, Manassas, Va.), 1% Penycillin-Streptomycin (Mediatech, Manassas, Va.). Media was changed every two or three days. Cells were maintained at 37° C., 5% CO2. Flow cytometry experiments: Cells were treated with camptothecin (CPT, 24 hrs, 10 μM). After removal of the medium, cells were resuspended into 100 μL of binding buffer (10 mM HEPES, 140 mM NaCl, 2.5 mM CaCl2, 1% FBS). Cells were stained at 37° C. for 15 min with 1 μL Annexin-APC (Invitrogen) and 1 μL propidium iodide (BD Pharmingen) or 1 μL of GadoTO (0.1 mM stock solution in binding buffer). Cells were diluted with 200 μL of binding buffer and analyzed by flow cytometry (FACSCalibur, Becton Dickinson). Fluorescence from the APC fluorochrome was measured in FL4, PI in FL3, and GadoTO in FL1.
Results from Dual Wavelength FACS: The exclusion of GadoTO from healthy cells and uptake by necrotic cells by FACS is shown in FIG. 3. […] GadoTO binding necrotic cells were of two intensities (Hi and Lo), indicating two subpopulations of necrotic cells.

Jurkat T cells [3] = assay: Single channel FACS, GadoTO versus propidium iodide; format: cell-based
Description: as §2, with “FL1. […]” for “FL1.”

Jurkat cells = assay: In vitro T1 weighted MRI / FRI of packed cell phantoms of camptothecin treated Jurkat cells; format: cell-based; details: for uptake by CPT treated cells by MRI: T1 weighted MRI, FRI and relaxometry, CPT treated versus non-CPT treated Jurkat cells
Description: The interaction of GadoTO with necrotic cells is shown schematically in FIG. 5A. GadoTO is excluded by vital cells. Prolonged ischemia or a 48 hour exposure to CPT induces necrosis, which causes GadoTO to enter cells and intercalate with double stranded nuclear DNA. […] Effects on cellular T1 were confirmed by relaxometry studies using cell suspensions.

[4] = system: necrotic cardiomyocytes of infarcted myocardium; assay: In vivo MR imaging of ischemia induced necrosis, left coronary artery ligation; details: mouse
Description: For in vivo MR studies, we employed a model of prolonged ischemia, obtained when the left coronary artery of a beating mouse heart was ligated for 18 hours. The ligation and procedure is similar to our previously described method (Sosnovik, D. E. et al., Magn. Reson. Med., 54:718-24, 2005) except the duration is for 18 hours. […] GadoTO was injected (18 hours post ligation) and imaged (21 h). […] Gd-DTPA washed in and out of damaged myocardium within 1 hour.

infarcted myocardium = assay: MR imaging of post myocardial infarction phases (age of infarction); format: in vivo; details: mouse
Text: An additional feature of the invention is an imaging method to determine the age of a myocardial infarction (MI), i.e., the time since the occlusion began. Patients can present with symptoms of variable intensity and duration that may or may indicate an infarction. Current techniques can define regions of non-functional myocardium, but cannot define the time of infarction. With developing (“young”) infarctions, treatments to limit or reverse the affected area are indicated, while with “old” infarctions such treatments are futile. In this method a vital fluorochrome conjugate is injected intravenously and MRI or PET or SPECT are used to measure the vital fluorochrome conjugates uptake in an infracted area.
FIGS. 6A and 6B show an example of a beating mouse heart injected with GadoTO imaged during phase 2 (18 hours) (FIG. 6A) and phase 4 (8 days) (FIG. 6B) of the post MI reaction phases. […] GadoTO can thus be used to specifically image acutely necrotic myocardium/tissue.

## CN1/C(=C/c2cc[n+](CCC[N+](C)(C)C)c3ccccc23)Sc2ccccc21 [TO-PRO 1]
[1]
  Abs (absorption): 515 nm
  em (emission): 531 nm

## CN(C)CCCN1C=C\C(=C/C=C/C=C/c2sc3ccccc3[n+]2C)c2ccccc21.I.[I-] [TO-PRO 5]
[1]
  Abs (absorption): 745 nm
  em (emission): 770 nm

## CCCN(CCCN(C)C)C1=C/C(=C\c2sc3ccccc3[n+]2C)c2ccccc2N1c1ccccc1 [Sybr Green]
[1]
  Abs (absorption): 490 nm
  em (emission): 520 nm

## Gadolinium thiazole orange [GadoTO]
Plasmid DNA
  EC50: 89 µM
DNA
  EC50: 179 µM
Jurkat T cells [2]; Jurkat T cells after camptothecin (+CPT, 24 hrs, 10 μM), necrotic cells
  binding to cells, dual wavelength FACS: cells bound both probes
Jurkat T cells [2]; Jurkat T cells before camptothecin (-CPT), viable cells
  binding to cells, dual wavelength FACS: failed to bind
Jurkat T cells [3]; Jurkat cells with CPT (+CPT), PI compared with GadoTO
  binding to cells, single channel FACS: two peaks (Lo and Hi) of highly fluorescent cells were seen
Jurkat T cells [3]; Jurkat cells without CPT (-CPT)
  binding to cells, single channel FACS: cells failed to bind GadoTO
Jurkat cells
  uptake by CPT treated cells by MRI: brighter than non-CPT treated cells
Jurkat cells; after intercalation with double stranded nuclear DNA of necrotic cells
  nuclear cell fluorescence emission: 533 nm
[4]; injected 18 hours post ligation, imaged 21 h, gradient echo
  infarct on GRE image: barely visible infarct
[4]; injected 18 hours post ligation, imaged 21 h, inversion recovery GRE
  infarct on IR GRE image: well-defined, bright infarct
Infarcted myocardium; phase 2 (18 hours) post MI
  uptake in infarcted myocardium: Profound uptake
Infarcted myocardium; phase 4, injected 8 days after myocardial infarction
  uptake in infarcted myocardium: no uptake

## O=C([O-])CN(CCN(CC(=O)[O-])CC(=O)O)CCN(CC(=O)[O-])CC(=O)O.[Gd+3] [Gd-DTPA]
Jurkat cells
  uptake by CPT treated cells by MRI: did not induce the uptake
[4]; damaged myocardium
  time to wash in and out of damaged myocardium: ≤ 1 h

## CN1/C(=C/c2cc[n+](CCC[N+](C)(C)C)c3ccccc23)Oc2ccccc21 [YO-PRO]
[1]
  Abs (absorption): 491 nm
  em (emission): 509 nm

## CN1/C(=C/C=C/C2C=CN(CCC[N+](C)(C)C)c3ccccc32)Oc2ccccc21 (centres unmarked) [YO-PRO 3]
[1]
  Abs (absorption): 612 nm
  em (emission): 631 nm

## C[n+]1c(/C=C/C=C2\C=CN(CCC[N+](C)(C)C)c3ccccc32)sc2ccccc21 [TO-PRO 3]
[1]
  Abs (absorption): 612 nm
  em (emission): 631 nm
